ChEMBL document CHEMBL1201862, “PubChem BioAssay data set” (2004)
Activity calls are given as the source filed them.

Experiments:
[1] = target: T1, G-protein coupled receptor 55 (Homo sapiens, UniProt Q9Y2T6); assay: inhibition of LPI-stimulated GPR55 beta-arrestin translocation – imaging, U2OS, beta-arrestin-GFP, LPI agonist, primary screen (AID 2013); format: functional;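 also: antagonist potency measured as reduced agonist-driven arrestin aggregation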
Cannabinoid receptor 1 [2] = target: T2, Cannabinoid receptor 1 (Homo sapiens, UniProt P21554); assay: SAR analysis of antagonists of the Cannabinoid Receptor 1 using an Image-Based Assay - Set 2. [Related pubchem assays (depositor defined):AID2013, AID2026]; format: functional
[3] = target: T3, G-protein coupled receptor 35 (Homo sapiens, UniProt Q9HC97); assay: SAR analysis of Agonists of the GPR35 Receptor using an Image-Based Assay - Set 2. [Related pubchem assays (depositor defined):AID2013, AID2026]; format: functional
Cannabinoid receptor 2 [4] = target: T4, Cannabinoid receptor 2 (Homo sapiens, UniProt P34972); assay: SAR analysis of antagonists of the Cannabinoid Receptor 2 using an Image-Based Assay. [Related pubchem assays (depositor defined):AID2013, AID2026]; format: functional
Cannabinoid receptor 1 [5] = target: T2, Cannabinoid receptor 1; assay: SAR analysis of agonists of the Cannabinoid Receptor 1 using an Image-Based Assay - Set 2. [Related pubchem assays (depositor defined):AID2013, AID2026]; format: functional
[6] = target: T3, G-protein coupled receptor 35; assay: SAR analysis of Antagonists of the GPR35 Receptor using an Image-Based Assay - Set 3. [Related pubchem assays (depositor defined):AID2013, AID2026]; format: functional
[7] = target: T1, G-protein coupled receptor 55; assay: blockade of LPI-induced GPR55 arrestin translocation – imaging, U2OS, beta-arrestin-GFP, LPI agonist, set 2, SAR follow-up (AID 2820); format: functional
Cannabinoid receptor 2 [8] = target: T4, Cannabinoid receptor 2; assay: SAR analysis of agonists of the Cannabinoid Receptor 2 using an Image-Based Assay. [Related pubchem assays (depositor defined):AID2013, AID2026]; format: functional
Cytochrome P450 2C19 = Cytochrome P450 2C19 (Homo sapiens, UniProt P33261); assay: Cytochrome panel assay with activity outcomes. Panel member name: p450-cyp2c19 Compounds with AC50 equal or less than 10 uM are considered active; format: functional; details: read-out: AC50
Cytochrome P450 3A4 = Cytochrome P450 3A4 (Homo sapiens, UniProt P08684);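 also: CYP3A4 tested as one member of a cytochrome P450 panel screen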
[9] = Luminescent dose response cell-based high throughput screening assay for inhibitors of the Janus kinase 2 mutant JAK2V617F. [Related pubchem assays: 1446 (Primary screen.), 1521 (Confirmation assay.), 1486 (Counter screen.)]; format: functional
[10] = Intein inhibitors as potential Tuberculosis drugs, a cytotoxicity screen. [Related pubchem assays (depositor defined):AID2221, AID2223, AID434968, AID435010, AID449749, AID449750, AID489010]; format: functional
HEK293 = assay: EBV LMP1 TES2 canonical NF-kB signalling blockers – cell-based, HEK293, luciferase, cherry-pick, dose response (AID 588343); format: functional; details: Homo sapiens
[11] = target: T5, Replicative DNA helicase DnaB (Mycobacterium tuberculosis, UniProt P9WMR3); assay: DnaB intein splicing inhibitors, dose response, biochemical, cell-free fluorescence (AID 449749); format: functional
T5 sequence (P9WMR3 whole entry): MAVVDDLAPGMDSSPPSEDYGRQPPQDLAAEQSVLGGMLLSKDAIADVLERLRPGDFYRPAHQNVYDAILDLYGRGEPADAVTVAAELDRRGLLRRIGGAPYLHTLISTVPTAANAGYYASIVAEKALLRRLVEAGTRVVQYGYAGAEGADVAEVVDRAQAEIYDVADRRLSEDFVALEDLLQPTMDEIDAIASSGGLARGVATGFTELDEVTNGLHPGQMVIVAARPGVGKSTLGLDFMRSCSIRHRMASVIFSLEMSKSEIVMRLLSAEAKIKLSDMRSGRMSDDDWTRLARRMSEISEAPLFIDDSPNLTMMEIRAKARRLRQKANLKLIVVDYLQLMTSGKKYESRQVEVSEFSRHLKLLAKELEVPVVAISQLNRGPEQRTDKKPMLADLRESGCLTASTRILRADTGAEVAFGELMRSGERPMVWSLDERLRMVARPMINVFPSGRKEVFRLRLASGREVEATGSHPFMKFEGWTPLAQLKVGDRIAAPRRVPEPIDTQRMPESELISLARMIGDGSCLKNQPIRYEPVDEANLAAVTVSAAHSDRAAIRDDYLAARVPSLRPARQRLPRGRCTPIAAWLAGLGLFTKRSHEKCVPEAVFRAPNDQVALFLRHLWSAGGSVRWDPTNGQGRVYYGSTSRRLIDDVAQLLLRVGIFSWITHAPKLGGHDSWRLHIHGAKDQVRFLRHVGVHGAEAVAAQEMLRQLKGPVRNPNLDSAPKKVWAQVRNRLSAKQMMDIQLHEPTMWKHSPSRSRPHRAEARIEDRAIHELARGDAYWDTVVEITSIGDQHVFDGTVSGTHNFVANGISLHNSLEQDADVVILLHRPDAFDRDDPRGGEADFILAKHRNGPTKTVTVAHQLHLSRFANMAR

Protein RecA = target: T6, Protein RecA (Mycobacterium tuberculosis, UniProt P9WHJ3); assay: Fluorescence Cell-Free Homogeneous Dose Retest to Identify Inhibitors of RecA-Intein Splicing Activity. [Related pubchem assays (depositor defined):AID2097, AID2223, AID489010, AID492950]; format: functional
T6 sequence (P9WHJ3 whole entry): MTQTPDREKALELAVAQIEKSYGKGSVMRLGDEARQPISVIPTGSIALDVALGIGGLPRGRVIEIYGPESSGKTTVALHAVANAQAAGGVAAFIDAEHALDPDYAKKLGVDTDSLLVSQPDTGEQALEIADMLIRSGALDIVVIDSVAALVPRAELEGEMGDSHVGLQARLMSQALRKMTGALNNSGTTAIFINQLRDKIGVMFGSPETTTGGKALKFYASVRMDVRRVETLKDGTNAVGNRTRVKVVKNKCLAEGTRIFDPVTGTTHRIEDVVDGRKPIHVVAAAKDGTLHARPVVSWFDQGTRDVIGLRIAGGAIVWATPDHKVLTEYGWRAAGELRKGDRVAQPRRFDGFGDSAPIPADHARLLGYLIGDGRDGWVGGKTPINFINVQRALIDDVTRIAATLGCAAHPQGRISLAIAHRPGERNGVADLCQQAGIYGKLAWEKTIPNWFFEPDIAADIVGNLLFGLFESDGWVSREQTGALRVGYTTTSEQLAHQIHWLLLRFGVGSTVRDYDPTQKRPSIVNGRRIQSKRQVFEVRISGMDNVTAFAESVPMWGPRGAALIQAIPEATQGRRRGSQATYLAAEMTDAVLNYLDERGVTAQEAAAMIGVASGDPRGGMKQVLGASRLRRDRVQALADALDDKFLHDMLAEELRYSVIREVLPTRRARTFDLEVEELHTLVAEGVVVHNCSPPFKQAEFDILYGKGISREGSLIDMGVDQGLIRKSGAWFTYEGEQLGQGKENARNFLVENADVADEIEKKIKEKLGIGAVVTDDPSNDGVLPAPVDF

[12] = target: Beta-2 adrenergic receptor (Homo sapiens, UniProt P07550); assay: ADRB2 activation measured by internalization – cell-based, FAP fluorogen, flow cytometry, cherry pick 1, dose response (AID 588763); format: functional
[13] = viability loss in HEK293T cells – cell-based, cherry-picks, cytotoxicity control for HIV Vif inhibitor project, dose response (AID 652208); format: functional
Coagulation factor XII = target: T7, Coagulation factor XII (Homo sapiens, UniProt P00748); assay: Factor XIIa Dose Response Confirmation from Single Well HTS. [Related pubchem assays (depositor defined):AID701]; format: functional
T7 sequence (P00748 whole entry): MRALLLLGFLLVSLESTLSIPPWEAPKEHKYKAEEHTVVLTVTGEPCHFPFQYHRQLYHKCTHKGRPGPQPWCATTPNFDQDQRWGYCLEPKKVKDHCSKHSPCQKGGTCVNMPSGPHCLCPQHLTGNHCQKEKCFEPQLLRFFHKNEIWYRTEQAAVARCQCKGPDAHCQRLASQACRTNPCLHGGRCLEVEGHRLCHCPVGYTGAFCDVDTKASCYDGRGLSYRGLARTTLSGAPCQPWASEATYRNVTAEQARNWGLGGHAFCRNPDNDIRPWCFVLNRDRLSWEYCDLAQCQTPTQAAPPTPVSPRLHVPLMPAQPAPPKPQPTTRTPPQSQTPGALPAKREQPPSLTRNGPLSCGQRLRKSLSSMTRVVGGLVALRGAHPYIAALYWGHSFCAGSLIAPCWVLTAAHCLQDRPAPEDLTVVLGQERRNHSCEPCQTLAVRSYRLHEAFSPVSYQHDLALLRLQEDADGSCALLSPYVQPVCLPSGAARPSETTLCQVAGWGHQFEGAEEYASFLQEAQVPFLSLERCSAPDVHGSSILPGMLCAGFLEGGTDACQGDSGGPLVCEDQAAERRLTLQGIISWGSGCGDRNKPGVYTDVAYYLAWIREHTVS

[14] = target: T3, G-protein coupled receptor 35; assay: SAR analysis of Agonists of the GPR35 Receptor using an Image-Based Assay - Set 4. [Related pubchem assays (depositor defined):AID2013, AID2026]; format: functional
Cannabinoid receptor 1 [15] = target: T2, Cannabinoid receptor 1; assay: SAR analysis of agonists of the Cannabinoid Receptor 1 using an Image-Based Assay - Set 4. [Related pubchem assays (depositor defined):AID2013, AID2026]; format: functional
[16] = target: T3, G-protein coupled receptor 35; assay: SAR analysis of Antagonists of the GPR35 Receptor using an Image-Based Assay - Set 6. [Related pubchem assays (depositor defined):AID2013, AID2026]; format: functional
Cannabinoid receptor 1 [17] = target: T2, Cannabinoid receptor 1; assay: SAR analysis of antagonists of the Cannabinoid Receptor 1 using an Image-Based Assay - Set 4. [Related pubchem assays (depositor defined):AID2013, AID2026]; format: functional
[18] = target: T1, G-protein coupled receptor 55; assay: SAR Analysis of Selective Antagonists of GPR55 using an Image-Based Assay - Set 4. [Related pubchem assays (depositor defined):AID2013, AID2026]; format: functional
Cannabinoid receptor 2 [19] = target: T4, Cannabinoid receptor 2; assay: SAR analysis of antagonists of the Cannabinoid Receptor 2 using an Image-Based Assay - Set 3. [Related pubchem assays (depositor defined):AID2013, AID2026]; format: functional
Cannabinoid receptor 2 [20] = target: T4, Cannabinoid receptor 2; assay: SAR analysis of agonists of the Cannabinoid Receptor 2 using an Image-Based Assay - Set 3. [Related pubchem assays (depositor defined):AID2013, AID2026]; format: functional
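For CC50 in this document: cells exposed to compound for 72 hours before luminescence readout.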

T1 sequence (Q9Y2T6 whole entry): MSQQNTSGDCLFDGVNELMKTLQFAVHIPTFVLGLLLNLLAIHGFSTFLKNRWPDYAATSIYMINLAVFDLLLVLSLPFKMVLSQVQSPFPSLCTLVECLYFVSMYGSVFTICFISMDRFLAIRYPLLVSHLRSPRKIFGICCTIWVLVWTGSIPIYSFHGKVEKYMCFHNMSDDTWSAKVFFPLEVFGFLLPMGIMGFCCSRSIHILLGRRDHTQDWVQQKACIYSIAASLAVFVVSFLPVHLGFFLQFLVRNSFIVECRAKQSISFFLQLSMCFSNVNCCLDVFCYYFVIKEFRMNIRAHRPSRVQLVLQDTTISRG
T4 sequence (P34972 whole entry): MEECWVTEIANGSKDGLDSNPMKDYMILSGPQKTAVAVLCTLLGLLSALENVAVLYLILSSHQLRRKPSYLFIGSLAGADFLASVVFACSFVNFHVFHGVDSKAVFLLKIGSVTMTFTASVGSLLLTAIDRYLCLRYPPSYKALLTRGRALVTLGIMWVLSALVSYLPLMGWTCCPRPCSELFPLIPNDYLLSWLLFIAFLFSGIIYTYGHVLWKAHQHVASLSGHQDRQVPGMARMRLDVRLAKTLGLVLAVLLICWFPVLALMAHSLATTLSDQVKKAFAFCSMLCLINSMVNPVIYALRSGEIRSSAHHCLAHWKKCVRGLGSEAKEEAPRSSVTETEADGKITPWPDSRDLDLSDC
T2 sequence (P21554 whole entry): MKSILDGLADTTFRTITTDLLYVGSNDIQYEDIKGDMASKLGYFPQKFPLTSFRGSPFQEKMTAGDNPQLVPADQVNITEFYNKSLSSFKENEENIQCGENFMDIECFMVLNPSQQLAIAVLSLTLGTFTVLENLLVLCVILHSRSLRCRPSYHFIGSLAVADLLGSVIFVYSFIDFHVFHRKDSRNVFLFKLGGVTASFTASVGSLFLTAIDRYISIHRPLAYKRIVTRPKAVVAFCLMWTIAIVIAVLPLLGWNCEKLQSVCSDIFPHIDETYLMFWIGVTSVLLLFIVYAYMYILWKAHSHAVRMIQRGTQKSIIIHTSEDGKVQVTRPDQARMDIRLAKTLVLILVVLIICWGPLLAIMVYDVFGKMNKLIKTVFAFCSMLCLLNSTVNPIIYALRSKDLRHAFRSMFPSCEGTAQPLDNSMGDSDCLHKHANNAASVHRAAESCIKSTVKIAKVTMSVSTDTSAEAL
T3 sequence (Q9HC97 whole entry): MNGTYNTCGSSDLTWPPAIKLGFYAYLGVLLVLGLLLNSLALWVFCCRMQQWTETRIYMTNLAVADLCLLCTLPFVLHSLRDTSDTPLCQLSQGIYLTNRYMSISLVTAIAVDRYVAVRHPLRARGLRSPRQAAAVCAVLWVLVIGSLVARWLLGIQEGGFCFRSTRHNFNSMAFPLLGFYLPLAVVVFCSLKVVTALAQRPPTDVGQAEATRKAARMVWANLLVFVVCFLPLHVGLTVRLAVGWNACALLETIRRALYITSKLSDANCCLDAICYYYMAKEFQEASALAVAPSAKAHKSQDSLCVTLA
Chain of Cytochrome P450 2C19 (P33261 whole entry): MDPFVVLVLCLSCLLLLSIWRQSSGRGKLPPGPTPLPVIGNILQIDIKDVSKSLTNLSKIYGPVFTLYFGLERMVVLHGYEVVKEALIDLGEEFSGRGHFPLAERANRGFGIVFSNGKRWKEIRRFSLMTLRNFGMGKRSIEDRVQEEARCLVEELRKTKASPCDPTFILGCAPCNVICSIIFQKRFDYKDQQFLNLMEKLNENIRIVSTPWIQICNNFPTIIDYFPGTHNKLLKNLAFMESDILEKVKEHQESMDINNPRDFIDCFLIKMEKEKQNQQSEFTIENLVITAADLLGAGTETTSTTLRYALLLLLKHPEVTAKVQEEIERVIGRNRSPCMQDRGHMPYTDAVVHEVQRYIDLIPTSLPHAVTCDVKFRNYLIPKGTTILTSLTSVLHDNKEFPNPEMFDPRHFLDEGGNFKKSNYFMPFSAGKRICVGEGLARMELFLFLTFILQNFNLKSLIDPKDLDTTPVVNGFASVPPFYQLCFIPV
Chain of Beta-2 adrenergic receptor (P07550 whole entry): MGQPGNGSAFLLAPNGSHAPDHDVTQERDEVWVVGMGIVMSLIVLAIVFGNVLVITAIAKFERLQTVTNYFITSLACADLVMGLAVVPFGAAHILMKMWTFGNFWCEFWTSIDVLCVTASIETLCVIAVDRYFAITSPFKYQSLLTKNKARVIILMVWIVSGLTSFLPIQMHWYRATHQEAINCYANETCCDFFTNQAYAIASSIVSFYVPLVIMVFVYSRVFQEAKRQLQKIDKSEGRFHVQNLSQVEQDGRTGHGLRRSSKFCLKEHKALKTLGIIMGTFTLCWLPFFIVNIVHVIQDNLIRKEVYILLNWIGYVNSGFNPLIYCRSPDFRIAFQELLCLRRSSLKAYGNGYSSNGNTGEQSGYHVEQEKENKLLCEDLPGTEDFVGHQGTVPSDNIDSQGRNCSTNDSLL
Chain of Cytochrome P450 3A4 (P08684 whole entry): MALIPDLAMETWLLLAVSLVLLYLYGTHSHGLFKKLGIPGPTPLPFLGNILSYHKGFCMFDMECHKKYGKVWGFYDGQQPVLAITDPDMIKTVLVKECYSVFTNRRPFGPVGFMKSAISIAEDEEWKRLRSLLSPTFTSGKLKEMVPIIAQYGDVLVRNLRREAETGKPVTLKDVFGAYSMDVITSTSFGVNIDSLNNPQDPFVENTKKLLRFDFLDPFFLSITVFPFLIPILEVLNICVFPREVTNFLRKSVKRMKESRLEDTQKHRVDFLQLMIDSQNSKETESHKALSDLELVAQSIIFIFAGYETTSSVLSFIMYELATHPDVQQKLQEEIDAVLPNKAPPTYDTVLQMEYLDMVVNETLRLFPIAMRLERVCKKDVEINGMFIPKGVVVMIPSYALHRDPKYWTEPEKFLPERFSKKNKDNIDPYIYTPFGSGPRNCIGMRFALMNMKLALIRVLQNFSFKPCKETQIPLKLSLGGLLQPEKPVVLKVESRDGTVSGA

Cc1cc(C)c2nc(-c3ccccn3)cc(C(=O)Nc3ccc(S(=O)(=O)Nc4cc(C)on4)cc3)c2c1
IC50 [1]: 1.82 µM (active) | IC50 (Cannabinoid receptor 1 [2]): > 32 µM (inactive) | EC50 [3]: > 32 µM (inactive) | IC50 (Cannabinoid receptor 2 [4]): > 32 µM (inactive) | EC50 (Cannabinoid receptor 1 [5]): > 32 µM (inactive) | IC50 [6]: > 32 µM (inactive) | IC50 [7]: 0.709 µM (active) | EC50 (Cannabinoid receptor 2 [8]): > 32 µM (inactive) | AC50 (Cytochrome P450 2C19): 17.8 µM (inconclusive) | AC50 (Cytochrome P450 3A4): 17.8 µM (inconclusive)

Clc1ccc(-n2nnnc2Sc2ncnc3sccc23)cc1
IC50 [9]: 0.787 µM (active) | CC50 [10]: 9.7 µM (active) | AC50 (HEK293): 10.7 µM (active) | AC50 [11]: 3.76 µM (active) | EC50 (Protein RecA): 1.03 µM (active) | EC50 [12]: 10.5 µM (inactive) | AC50 [13]: 10.8 µM (active)

N#Cc1ccc(NC(=O)COC(=O)CNC(=O)C2CCCCC2)cc1
IC50 (Coagulation factor XII): > 50 µM (inactive)

Cc1nnc(-c2cccc3ccccc23)c2cn(-c3cccc(Br)c3)nc12
EC50 [14]: > 32 µM (inactive) | EC50 (Cannabinoid receptor 1 [15]): > 32 µM (inactive) | IC50 [16]: 28.2 µM (inactive) | IC50 (Cannabinoid receptor 1 [17]): 0.661 µM (active) | IC50 [18]: 5.27 µM (active) | IC50 (Cannabinoid receptor 2 [19]): 3.87 µM (active) | EC50 (Cannabinoid receptor 2 [20]): > 32 µM (inactive)
